Measurements taken from patent US20140275276A1, “PHARMACEUTICAL COMPOSITION OF S-KETAMINE HYDROCHLORIDE” (JANSSEN PHARMACEUTICA NV, priority 2013, published 2014).

Tests used:
Format in all cases: cell-based
[1] = test system: environmental Micrococcus Luteus; assay: Full AET challenge test; conditions: spike 10^5-10^6 CFU/ml, room temperature
Excerpt: (§1) A challenge test was initiated to investigate whether the formulation could prevent microorganisms from proliferating. The challenge test consisted of challenging the formulation with a prescribed inoculum of microorganisms. The inoculated formulation was then stored at room temperature and at specified time intervals a sample was withdrawn to count the microorganisms in the sample.
(§2) The formulations listed in Table 3 were additionally subjected to a Full AET challenge, with results for the individual formulations are shown in Tables 5-8, below. Additionally, Table 9 below, provides results for a Full AET challenge of a reference formulation containing 0.00 mg/mL S-ketamine hydrochloride, denatonium benzoate (to mimic the taste of the S-ketamine HCl formulation(s)), and adjusted to pH 5.21 with 1N NaOH.

Aspergillus brasiliensis = assay: Microbial challenge test / Full AET challenge test; conditions: spike 10^5-10^6 CFU/ml, 28 days of incubation at room temperature
Excerpt: as §1, §2

Pseudomonas aeruginosa = assay: Microbial challenge test / Full AET challenge test; conditions: spike 10^5-10^6 CFU/ml, room temperature
Excerpt: as §1, §2

Staphylococcus aureus = assay: Microbial challenge test / Full AET challenge test; conditions: spike 10^5-10^6 CFU/ml, room temperature
Excerpt: as §1, §2

Escherichia coli = assay: Microbial challenge test / Full AET challenge test; conditions: spike 10^5-10^6 CFU/ml, room temperature
Excerpt: as §1, §2

Candida albicans = assay: Microbial challenge test / Full AET challenge test; conditions: spike 10^5-10^6 CFU/ml, room temperature
Excerpt: as §1, §2

[2] = test system: environmental isolate Staphylococcus haemolyticus; assay: Microbial challenge test; conditions: spike 10^5-10^6 CFU/ml, room temperature
Excerpt: as §1

CN[C@]1(c2ccccc2Cl)CCCCC1=O.Cl [S-ketamine hydrochloride, (S)-2-(2-chlorophenyl)-2-(methylamino)cyclohexanone hydrochloride]
Antimicrobial effect in words (change of the original spike) [1]: strong antimicrobial properties
Antimicrobial effect in words (change of the original spike) (Aspergillus brasiliensis): some inhibitory activity
Antimicrobial effect in words (change of the original spike) (Pseudomonas aeruginosa): strong antimicrobial properties
Antimicrobial effect in words (change of the original spike) (Staphylococcus aureus): strong antimicrobial properties
Antimicrobial effect in words (change of the original spike) (Escherichia coli): strong antimicrobial properties
Antimicrobial effect in words (change of the original spike) (Candida albicans): strong antimicrobial properties
Antimicrobial effect in words (change of the original spike) [2]: strong antimicrobial properties
